Measured values: ChEMBL document CHEMBL3507680, “University of Dundee, Gates Library screen for HepG2 cell viability”

Assay: Human HepG2 cell viability assay in 384 well format
Format: toxicity, cell-based
Design: dose 125 nL, time 70.5 hour; concentration not given beside the values
Details: HepG2 cells, read-out: Inhibition

Point of comparison: `CN(C)C(=O)c1cc(-c2cnc(N)nc2)nc2cc(F)ccc12`, cytotoxicity at 70.5 h -2.39%. Against it:
- CCc1nc(C)c(-c2nccn2CC2CCN(C3CCCC3)CC2)[nH]1 — lower, -2.56%
- CC(C)(C)C(=O)NCCC1CN(Cc2ccccc2F)CCO1 (stereo not drawn) — lower, -9.52%
- CC(CN1CC[C@@H]2CCCC[C@@H]2C1)n1cnc2ccccc21 (stereo partly drawn) — higher, 21.4%
- Cc1ncc(S(C)(=O)=O)c(N(C)CCCc2cnn(C)c2)n1 — lower, -3.73%
- Cc1nc(C(F)(F)F)nc(N2CCC3(CC2)CC(C(=O)O)N(C)C3)c1C (stereo not drawn) — lower, -5.6%
- c1coc(-c2nc3c(c(N4CCCN5CCC[C@H]5C4)n2)CCNCC3)c1 — higher, -2.19%
- Cc1ccsc1-c1nccn1C1CC(=O)N(C(C)C)C1 (stereo not drawn) — lower, -5.72%
- CN(C)CC1(O)CCCN(C(=O)Cc2ccc(Cl)c(Cl)c2)C1 (stereo not drawn) — lower, -2.73%
- FC(F)(F)C1CN(Cc2cccc(-c3ccccn3)c2)CCO1 (stereo not drawn) — lower, -6.31%
- CNc1cc(C)nc(N2CCC3(CC2)[C@H](O)C[C@@H]3O)n1 — lower, -6.92%
- Cn1ccnc1CN1CCC(CNS(=O)(=O)c2cccnc2)C1 (stereo not drawn) — higher, 7.54%
- CCn1ccnc1C1CCN(c2ncnc3ccsc23)CC1 — higher, 7.55%
- COc1ccc(/C=C/CN2CCN(c3nccnc3C)CC2)cc1 — lower, -5.85%
- Cc1ccsc1-c1nc(CN(C)Cc2cc[nH]n2)c(C)o1 — higher, 12.8%
- Cc1ccnc(CC(C)N(C)Cc2ccc3c(c2)OCCO3)c1 (stereo not drawn) — higher, -0.147%
- N#Cc1nccnc1N1CCN(CCOCc2ccccc2)CC1 — higher, 16.9%
- Cc1[nH]c(=O)[nH]c(=O)c1CC(=O)N1CCCN(CC2CC2)C(C(C)C)C1 (stereo not drawn) — higher, 0.527%
- COc1cc(N(C)Cc2cccc(-n3cccn3)c2)nc(N)n1 — higher, -1.55%
- Cc1ccc(C(=O)N2C[C@@H]3CC[C@H](C2)N(Cc2ccccc2)C3)cn1 — higher, 17.8%
- Cc1ccc(CN2CC[C@@]3(O)CCN(S(=O)(=O)N(C)C)C[C@H]3C2)cc1C — lower, -16%
- CCCn1ncc(C(=O)N(CCOC)Cc2c(C)nn(CC)c2C)c1C — lower, -7.73%
- Cc1nn2c(N3CCC(C(N)=O)CC3)cc(-c3ccccc3)nc2c1C — higher, -2.04%
- CCn1ccnc1CN1CCC(Oc2ccccc2F)(C(=O)O)CC1 — higher, -0.995%
- Nc1ccc(CC2COc3ccccc3C2)cn1 (stereo not drawn) — lower, -5.61%
- CC(O)CN1CC2(CCC1=O)CCN(Cc1cc(F)ccc1Cl)CC2 (stereo not drawn) — lower, -2.56%
- Cc1cc(N2CCC(n3cc(CCCO)nn3)CC2)ccn1 — lower, -9.19%
- Cc1cnccc1CN(C)C(=O)C(C)(C)NC(=O)c1cccs1 — higher, 0.902%
- Cc1ccsc1[C@@H]1CCN(C(=O)Cn2cc3ccccc3n2)C[C@H]1O — higher, 15.1%
- O=C(c1ccco1)N1CCC(n2cc(-c3ccsc3)nn2)CC1 — lower, -5.81%
- Cc1ccc(CN2CCN(Cc3ccncc3)CC2=O)cc1 — higher, -0.378%
- Cc1cc(F)ccc1N1CCC(N2C[C@@H](C)[C@@](C)(O)C2)CC1 — lower, -5.91%
- COc1ccc(CN2C[C@@H](CN(C)C)[C@@H](CO)C2)cc1CN1CCCC1 — higher, 5.87%
- Cc1noc(C)c1CN(C)c1nc(C2CCCC2)nc2c1cnn2C — higher, 9.62%
- O=S1(=O)COCCN1CCCOc1ccc(F)cc1 — higher, 22.1%
- CCCN1CCN(C(=O)c2ccnc(N)c2)[C@H]2CS(=O)(=O)C[C@H]21 — higher, 2.28%
- CCN(Cc1cnn(C)c1)C(=O)c1ccc(C)c(N2CCNC2=O)c1 — lower, -17.2%
- Cn1cc(C(=O)N2CC[C@@]3(O)CCN(C(=O)C4CCCC4)C[C@H]3C2)cn1 — lower, -10.4%
- CCN1CC(C(=O)NCCc2csc(-c3ccncc3)n2)CCC1=O (stereo not drawn) — lower, -5.21%
- Cc1nn(C)c2nc(NCCCN3CCCC(CO)C3)sc12 (stereo not drawn) — lower, -9.15%
- CCOC(=O)C1(CCOC)CCCN(Cc2nccn2CC)C1 (stereo not drawn) — lower, -18.3%
- C[C@@H]1CN(Cc2cc3ccccc3n2C)CC[C@]1(C)O — higher, 16.1%
- Cc1oc(-c2ccoc2)nc1CN1CCCCC1CCc1ccccc1 (stereo not drawn) — higher, -2.03%
- CN(CCCc1cnn(C)c1)C(=O)C1CCC(=O)N(C2CCCC2)C1 (stereo not drawn) — higher, -0.586%
- CC(C)(O)CCc1ccc(C(=O)N2CCN(CC3CCCC3)CC2)cc1 — higher, 4.24%
- O=C(c1scc2c1OCCO2)N1CCOC(Cc2cccc(F)c2)C1 (stereo not drawn) — lower, -5.83%
- Cc1c(-c2c(-c3ccccc3)ncn2[C@@H](C(=O)O)[C@H](C)O)cnn1C — higher, 3.82%
- CS(=O)(=O)NCCC1CN(Cc2ccccc2F)CCO1 (stereo not drawn) — higher, 0.792%
- CC1CCCCN1C1CN(c2nc(C3CCCC3)nc3c2cnn3C)C1 (stereo not drawn) — lower, -3.67%
- CCn1cc(CN2CCN(C)C3(CCC(=O)N(CC4CC4)CC3)C2)cn1 (stereo not drawn) — higher, 1.18%
- CN(C)CC1(O)CCCN(c2nc(-c3ccccc3)no2)CC1 (stereo not drawn) — lower, -7.51%
- c1ccc(Cc2nc(CNC3CCOC4(CCOCC4)C3)no2)cc1 (stereo not drawn) — lower, -13.7%
- CNc1ncc(CN(C)Cc2cc(O)c3cc(C)cc(C)c3n2)cn1 — lower, -15.9%
- O=C(NCc1cccnc1-n1cncn1)C1CC2(CCNCC2)CN1 (stereo not drawn) — lower, -4.56%
- CNCC(=O)N1CCCC(c2cccc(Nc3nc(C)cc(C)n3)n2)C1 (stereo not drawn) — higher, 58.7%
- O=C(Cn1ccnc1)N1C[C@@H]2CC[C@H](Oc3ccccc3)[C@@H]2C1 — lower, -3%
- Cc1nc(N)cc(C2CN(C(=O)c3ccn(C)n3)CCO2)n1 (stereo not drawn) — lower, -11.7%
- CC(=O)N1CCC(C(=O)N(C)[C@@H]2CCC[C@@H](N3CCCC3)[C@@H]2O)CC1 — higher, 41.3%
- COc1ccc(C2(NC(=O)CCn3cncn3)CCCCC2)cc1 — lower, -6.29%
- O=C(c1ccccn1)N1CCc2c(nc(N3CCCC3)[nH]c2=O)C1 — higher, -1.38%
- O=C(Cn1c(=O)n(Cc2ccco2)c2ncccc21)NC1CCCCC1 — higher, 38.5%
- O=C(c1cccs1)N1CCC(Cn2nc(-c3ccco3)ccc2=O)CC1 — higher, 8.96%
- O=C(Cc1ccsc1)N1CCC(n2nc(-c3ccco3)ccc2=O)CC1 — higher, 1.25%
- O=C(c1cccs1)N1CCC(n2nc(-c3ccco3)ccc2=O)CC1 — higher, 11.7%
- COc1cc2nc3n(c(=O)c2cc1OC)CCN(C)CC3 — higher, 3.41%
- Cc1cc(-c2cnc(N3CCN(C)CC3)nc2-c2ccc(C)s2)on1 — higher, 6.38%
- Cc1nccn1-c1cccc(C2CCCN(C3CCCCC3)C2)n1 (stereo not drawn) — higher, 2.4%
- CN1CCCC(Cc2cncc(Br)c2)CC1 (stereo not drawn) — higher, 0.975%
- CN1CCCC[C@@H]2[C@H]1[C@@H](c1ccccc1)CCN2C(=O)c1ccccc1 — higher, 1.32%
- Cc1nc(O)c2nnn(C[C@H]3CCCN3C(=O)CCC3CCCC3)c2n1 — higher, 5.57%
- Cc1nc(C2CCN(C(=O)c3ccc(=O)n(C)c3)CC2)c2sccn12 — higher, 2.35%
- Fc1ccc(CCN2CCC(c3nnc(-c4cccnc4)o3)CC2)cc1 — higher, 16.7%
- Cn1nc(C2CCCN(Cc3ccsc3)C2)c2nccnc21 (stereo not drawn) — higher, -0.972%
- COc1cccc(N2CCN(CC(O)c3cc(C)sc3C)CC2)c1 (stereo not drawn) — lower, -2.76%
- O=C(Cc1ccsc1)N1CCCC(c2n[nH]c3nccnc23)C1 (stereo not drawn) — higher, 18.6%
- c1nc(CCC2CCCN2)cc(N2CCCOCC2)n1 (stereo not drawn) — higher, 9.03%
- Cn1nc(C2CCN(C(=O)Cc3cccc(F)c3)CC2)c2cccnc21 — lower, -6.14%
- Cc1cc(C)nc(Nc2cc(C3CCCN(C)C3)nc(C)n2)n1 (stereo not drawn) — lower, -27.7%
